Assay results as given in ChEMBL document CHEMBL1143564, “Structures of three classes of anticancer agents bound to the human topoisomerase I-DNA covalent complex” (J Med Chem, 2005).

Molecular target: T1, DNA topoisomerase 1 (Homo sapiens, UniProt P11387)
T1 sequence (P11387 whole entry): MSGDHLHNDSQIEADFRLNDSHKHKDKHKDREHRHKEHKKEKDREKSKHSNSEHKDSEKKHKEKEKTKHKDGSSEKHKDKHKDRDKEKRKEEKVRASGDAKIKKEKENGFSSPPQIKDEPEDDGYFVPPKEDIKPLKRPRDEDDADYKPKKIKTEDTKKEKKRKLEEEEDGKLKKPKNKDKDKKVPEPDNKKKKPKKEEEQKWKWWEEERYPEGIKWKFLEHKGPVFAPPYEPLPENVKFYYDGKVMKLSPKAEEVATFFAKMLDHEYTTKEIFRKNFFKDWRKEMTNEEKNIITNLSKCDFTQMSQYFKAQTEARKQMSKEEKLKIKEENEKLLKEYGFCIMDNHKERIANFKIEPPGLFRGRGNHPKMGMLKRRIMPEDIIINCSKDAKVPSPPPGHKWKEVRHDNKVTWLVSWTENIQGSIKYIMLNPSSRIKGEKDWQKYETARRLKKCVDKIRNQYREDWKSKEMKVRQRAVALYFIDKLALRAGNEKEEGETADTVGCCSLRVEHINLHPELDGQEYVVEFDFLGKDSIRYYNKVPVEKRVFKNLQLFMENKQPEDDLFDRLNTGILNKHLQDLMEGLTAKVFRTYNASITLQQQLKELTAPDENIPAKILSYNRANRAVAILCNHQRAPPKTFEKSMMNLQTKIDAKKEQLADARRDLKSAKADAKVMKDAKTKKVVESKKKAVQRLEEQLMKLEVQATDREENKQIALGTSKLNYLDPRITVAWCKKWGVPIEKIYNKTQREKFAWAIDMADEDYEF
Experiment: Inhibition of topoisomerase I-DNA complex in trapping assay

O=C1NC(=O)c2c1c1c3ccc(O)cc3[nH]c1c1c2c2ccc(O)cc2n1C1OC(CO)C(O)C(O)C1O (stereo unspecified)
IC50: 30 nM
